Converted amounts (≈) assume the structure as drawn.

These results are taken from ChEMBL document CHEMBL4350978, “Phytochemical and pharmacological attributes of piperine: A bioactive ingredient of black pepper” (2019).

Format in all cases: functional
Assay [1] has as its system Escherichia coli. Description: Antibacterial activity against Escherichia coli assessed as diameter of zone of inhibition at 15 ug/disc by disc diffusion method. The following applies: read-out: DIZ. In general terms: In agar diffusion tests the substance spreads into inoculated agar from a disc or well.
Assay [2] deals with Staphylococcus aureus. Description: Antibacterial activity against Staphylococcus aureus assessed as diameter of zone of inhibition at 15 ug/disc by disc diffusion method. The following applies: read-out: DIZ.
Assay [3] relates to Klebsiella pneumoniae. Description: Antibacterial activity against Klebsiella pneumoniae assessed as diameter of zone of inhibition at 15 ug/disc by disc diffusion method. The following applies: read-out: DIZ.
Assay [4] has as its system Proteus vulgaris. Put plainly: Antibacterial activity against Proteus vulgaris assessed as diameter of zone of inhibition at 15 ug/disc by disc diffusion method. The following applies: read-out: DIZ.
In assay [5] the test system is Pseudomonas aeruginosa. Put plainly: Antibacterial activity against Pseudomonas aeruginosa assessed as diameter of zone of inhibition at 15 ug/disc by disc diffusion method. The note with it: read-out: DIZ.
Assay [6] concerns Escherichia coli. Put plainly: Antibacterial activity against Escherichia coli assessed as diameter of zone of inhibition at 10 ug/disc by disc diffusion method. The note with it: read-out: DIZ.
The subject of assay [7] is Staphylococcus aureus. Description: Antibacterial activity against Staphylococcus aureus assessed as diameter of zone of inhibition at 10 ug/disc by disc diffusion method. The following applies: read-out: DIZ.
Assay [8] deals with Klebsiella pneumoniae. Description: Antibacterial activity against Klebsiella pneumoniae assessed as diameter of zone of inhibition at 10 ug/disc by disc diffusion method. The following applies: read-out: DIZ.
For assay [9], the system named is Proteus vulgaris. Description: Antibacterial activity against Proteus vulgaris assessed as diameter of zone of inhibition at 10 ug/disc by disc diffusion method. The note with it: read-out: DIZ.
The test system of assay [10] is Pseudomonas aeruginosa. Description: Antibacterial activity against Pseudomonas aeruginosa assessed as diameter of zone of inhibition at 10 ug/disc by disc diffusion method. The following applies: read-out: DIZ.
In assay [11] the test system is Escherichia coli. Put plainly: Antibacterial activity against Escherichia coli assessed as diameter of zone of inhibition at […] by disc diffusion method.
Assay [12] deals with Staphylococcus aureus. Description: Antibacterial activity against Staphylococcus aureus assessed as diameter of zone of inhibition at […] by disc diffusion method.
Assay [13] relates to Klebsiella pneumoniae. Description: Antibacterial activity against Klebsiella pneumoniae assessed as diameter of zone of inhibition at […] by disc diffusion method.
The test system of assay [14] is Proteus vulgaris. Description: Antibacterial activity against Proteus vulgaris assessed as diameter of zone of inhibition at […] by disc diffusion method.
Assay [15] relates to Pseudomonas aeruginosa. Description: Antibacterial activity against Pseudomonas aeruginosa assessed as diameter of zone of inhibition at […] by disc diffusion method.
Assay [16] deals with Candida albicans. Description: Antifungal activity against Candida albicans assessed as diameter of zone of inhibition at […] by disc diffusion method.
For assay [17], the system named is Escherichia coli. Description: Antibacterial activity against Escherichia coli by serial dilution method.
The test system of assay [18] is Staphylococcus aureus. Put plainly: Antibacterial activity against Staphylococcus aureus by serial dilution method.
Assay [19] has as its system Klebsiella pneumoniae. Description: Antibacterial activity against Klebsiella pneumoniae by serial dilution method.
The subject of assay [20] is Proteus vulgaris. Put plainly: Antibacterial activity against Proteus vulgaris by serial dilution method.
The subject of assay [21] is Candida albicans. Description: Antifungal activity against Candida albicans by serial dilution method.

As for `CC[C@H]1OC(=O)[C@H](C)[C@@H](O[C@H]2C[C@@](C)(OC)[C@@H](O)[C@H](C)O2)[C@H](C)[C@@H](O[C@@H]2O[C@H](C)C[C@H](N(C)C)[C@H]2O)[C@](C)(O)C[C@@H](C)C(=O)[C@H](C)[C@@H](O)[C@]1(C)O` [ERYTHROMYCIN], the zone of inhibition at 15 µg/disc in the assay with Escherichia coli [1] worked out at 15 mm; in the assay with Staphylococcus aureus [2], 24 mm; with Klebsiella pneumoniae [3] it was 10 mm; in the assay with Proteus vulgaris [4] it was 6 mm; in the assay on Pseudomonas aeruginosa [5], 18 mm.
As to `CN[C@@H]1[C@H](O[C@H]2[C@H](O[C@H]3[C@H](O)[C@@H](O)[C@H](N=C(N)N)[C@@H](O)[C@@H]3N=C(N)N)O[C@@H](C)[C@]2(O)C=O)O[C@@H](CO)[C@H](O)[C@H]1O` [STREPTOMYCIN], the zone of inhibition at 10 µg/disc in the assay with Escherichia coli [6] worked out at 13.5 mm; with Staphylococcus aureus [7], 23 mm; in the assay with Klebsiella pneumoniae [8], 20 mm; with Proteus vulgaris [9] it was 10 mm; in the assay on Pseudomonas aeruginosa [10] it was 22 mm.
Consider `O=C(/C=C/C=C/c1ccc2c(c1)OCO2)N1CCCCC1` [PIPERINE], for which the “diameter of the inhibition zone (DIZ)” value was found to be 20 mm in the assay with Escherichia coli [11]; 12 mm with Staphylococcus aureus [12]; 15 mm in the assay on Klebsiella pneumoniae [13]; 17 mm in the assay with Proteus vulgaris [14]; 8 mm with Pseudomonas aeruginosa [15]; 23 mm in the assay with Candida albicans [16]. The MIC stood at 6.25 mg/mL (≈ 21.9 mM) in the assay on Escherichia coli [17]; 50 mg/mL (≈ 175 mM) with Staphylococcus aureus [18]; 25 mg/mL (≈ 87.6 mM) with Klebsiella pneumoniae [19]; 12.5 mg/mL (≈ 43.8 mM) against Proteus vulgaris [20]; 3.12 mg/mL (≈ 11 mM) with Candida albicans [21].

The MIC is the smallest concentration in the dilution series that meets the test's criterion for growth inhibition. Low readings indicate a more susceptible organism, high ones a less susceptible organism.
